In paper PMC8213057, “Targeting ALK2: An Open Science Approach to Developing Therapeutics for the Treatment of Diffuse Intrinsic Pontine Glioma” (Journal of Medicinal Chemistry, 2020):
“And” between values parts separate entries of the source, which are not always exact repeats. Identical values can stand only once.

Experiments:
[1] = target: AKT2 (Homo sapiens, UniProt P31751); experiment: biochemical; conditions: read-out: % enzyme activity, 1 μM; Run 1, Run 2
[2] = test system: TNK1
[3] = target: RSK2 (Homo sapiens, UniProt P51812); experiment: biochemical; conditions: read-out: % enzyme activity, 1 μM; Run 1, Run 2
Sequence of RSK2 (P51812 whole entry): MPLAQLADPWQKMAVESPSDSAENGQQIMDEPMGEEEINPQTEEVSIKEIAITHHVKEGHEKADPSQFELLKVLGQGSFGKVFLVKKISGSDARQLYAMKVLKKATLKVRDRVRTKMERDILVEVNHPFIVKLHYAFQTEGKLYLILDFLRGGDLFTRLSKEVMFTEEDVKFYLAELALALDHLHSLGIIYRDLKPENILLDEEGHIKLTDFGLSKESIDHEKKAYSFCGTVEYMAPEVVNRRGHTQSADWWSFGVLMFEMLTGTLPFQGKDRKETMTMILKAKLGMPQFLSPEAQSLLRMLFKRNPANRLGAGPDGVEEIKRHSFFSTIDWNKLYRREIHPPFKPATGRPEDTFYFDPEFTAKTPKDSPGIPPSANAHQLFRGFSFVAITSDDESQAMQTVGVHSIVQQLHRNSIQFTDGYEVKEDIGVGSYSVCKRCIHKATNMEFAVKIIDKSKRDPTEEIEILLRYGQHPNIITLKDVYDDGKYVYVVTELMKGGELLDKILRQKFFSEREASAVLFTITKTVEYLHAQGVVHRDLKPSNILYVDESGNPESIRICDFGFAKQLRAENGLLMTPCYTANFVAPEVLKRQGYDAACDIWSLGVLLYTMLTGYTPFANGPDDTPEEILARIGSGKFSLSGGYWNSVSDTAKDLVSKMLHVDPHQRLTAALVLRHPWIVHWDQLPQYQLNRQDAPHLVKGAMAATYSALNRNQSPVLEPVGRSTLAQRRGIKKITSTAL

[4] = target: T1, CHK1 (Homo sapiens, UniProt O14757); conditions: 1 μM; Run 1, Run 2
T1 sequence (O14757 1-476): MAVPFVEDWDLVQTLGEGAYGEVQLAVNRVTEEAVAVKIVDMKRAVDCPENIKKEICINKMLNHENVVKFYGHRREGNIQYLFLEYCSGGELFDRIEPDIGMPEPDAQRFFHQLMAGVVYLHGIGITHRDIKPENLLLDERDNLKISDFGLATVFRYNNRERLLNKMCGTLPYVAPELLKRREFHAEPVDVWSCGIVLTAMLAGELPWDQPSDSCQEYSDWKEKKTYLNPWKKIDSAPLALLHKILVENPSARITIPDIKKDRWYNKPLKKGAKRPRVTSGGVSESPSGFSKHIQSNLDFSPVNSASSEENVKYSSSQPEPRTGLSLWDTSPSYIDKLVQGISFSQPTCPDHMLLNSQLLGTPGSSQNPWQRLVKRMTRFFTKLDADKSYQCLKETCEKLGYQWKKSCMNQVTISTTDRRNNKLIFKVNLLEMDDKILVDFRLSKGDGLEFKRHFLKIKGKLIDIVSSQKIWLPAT

[5] = target: STK39/STLK3 (Homo sapiens, UniProt Q9UEW8); experiment: biochemical; conditions: read-out: % enzyme activity, 1 μM; Run 1, Run 2
[6] = target: LCK (Homo sapiens, UniProt P06239); conditions: 1 μM; Run 1, Run 2
Sequence of LCK (P06239 whole entry): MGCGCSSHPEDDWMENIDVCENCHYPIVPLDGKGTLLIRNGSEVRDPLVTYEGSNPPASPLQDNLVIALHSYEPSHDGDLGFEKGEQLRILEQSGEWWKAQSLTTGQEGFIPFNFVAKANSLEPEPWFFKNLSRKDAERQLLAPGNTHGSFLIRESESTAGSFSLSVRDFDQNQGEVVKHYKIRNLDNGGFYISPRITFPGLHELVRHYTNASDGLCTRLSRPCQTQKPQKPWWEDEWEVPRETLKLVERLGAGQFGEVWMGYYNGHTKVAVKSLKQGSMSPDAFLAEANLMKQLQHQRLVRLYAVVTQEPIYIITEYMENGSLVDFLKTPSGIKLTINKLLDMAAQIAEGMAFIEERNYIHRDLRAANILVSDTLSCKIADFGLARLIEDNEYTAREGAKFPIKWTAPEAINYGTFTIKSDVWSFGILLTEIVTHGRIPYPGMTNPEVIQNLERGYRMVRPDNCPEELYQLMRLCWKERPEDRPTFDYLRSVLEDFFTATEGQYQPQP

[7] = target: T2, EPHA3 (Homo sapiens, UniProt P29320); conditions: 1 μM; Run 1, Run 2
T2 sequence (P29320 21-983): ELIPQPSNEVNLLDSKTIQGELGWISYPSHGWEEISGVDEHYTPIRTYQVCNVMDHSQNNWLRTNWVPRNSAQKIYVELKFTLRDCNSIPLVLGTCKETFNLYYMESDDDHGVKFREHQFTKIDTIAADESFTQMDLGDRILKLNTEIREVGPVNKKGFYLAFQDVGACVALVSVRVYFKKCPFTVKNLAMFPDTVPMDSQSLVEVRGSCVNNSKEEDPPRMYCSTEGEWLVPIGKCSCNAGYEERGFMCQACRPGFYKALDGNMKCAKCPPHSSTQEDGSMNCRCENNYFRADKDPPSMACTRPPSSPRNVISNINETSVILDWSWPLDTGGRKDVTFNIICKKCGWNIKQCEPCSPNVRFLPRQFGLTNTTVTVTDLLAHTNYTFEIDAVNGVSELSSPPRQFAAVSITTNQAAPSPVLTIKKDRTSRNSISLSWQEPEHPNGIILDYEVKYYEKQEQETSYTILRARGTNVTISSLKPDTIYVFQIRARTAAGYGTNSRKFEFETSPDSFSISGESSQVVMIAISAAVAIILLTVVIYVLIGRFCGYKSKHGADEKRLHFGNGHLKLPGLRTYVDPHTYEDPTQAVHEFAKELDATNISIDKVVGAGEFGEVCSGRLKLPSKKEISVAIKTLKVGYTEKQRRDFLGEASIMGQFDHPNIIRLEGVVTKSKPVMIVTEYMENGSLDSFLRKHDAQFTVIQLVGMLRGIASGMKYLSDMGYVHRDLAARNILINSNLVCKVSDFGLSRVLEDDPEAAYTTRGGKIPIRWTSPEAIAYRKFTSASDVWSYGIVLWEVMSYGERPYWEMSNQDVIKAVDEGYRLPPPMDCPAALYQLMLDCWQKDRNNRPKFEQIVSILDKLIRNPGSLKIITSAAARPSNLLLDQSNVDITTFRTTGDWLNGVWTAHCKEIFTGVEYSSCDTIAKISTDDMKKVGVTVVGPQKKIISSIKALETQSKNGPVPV

[8] = target: T3, BRSK1 (Homo sapiens, UniProt Q8TDC3); experiment: biochemical; conditions: read-out: % enzyme activity, 1 μM; Run 1, Run 2
T3 sequence (Q8TDC3 1-778): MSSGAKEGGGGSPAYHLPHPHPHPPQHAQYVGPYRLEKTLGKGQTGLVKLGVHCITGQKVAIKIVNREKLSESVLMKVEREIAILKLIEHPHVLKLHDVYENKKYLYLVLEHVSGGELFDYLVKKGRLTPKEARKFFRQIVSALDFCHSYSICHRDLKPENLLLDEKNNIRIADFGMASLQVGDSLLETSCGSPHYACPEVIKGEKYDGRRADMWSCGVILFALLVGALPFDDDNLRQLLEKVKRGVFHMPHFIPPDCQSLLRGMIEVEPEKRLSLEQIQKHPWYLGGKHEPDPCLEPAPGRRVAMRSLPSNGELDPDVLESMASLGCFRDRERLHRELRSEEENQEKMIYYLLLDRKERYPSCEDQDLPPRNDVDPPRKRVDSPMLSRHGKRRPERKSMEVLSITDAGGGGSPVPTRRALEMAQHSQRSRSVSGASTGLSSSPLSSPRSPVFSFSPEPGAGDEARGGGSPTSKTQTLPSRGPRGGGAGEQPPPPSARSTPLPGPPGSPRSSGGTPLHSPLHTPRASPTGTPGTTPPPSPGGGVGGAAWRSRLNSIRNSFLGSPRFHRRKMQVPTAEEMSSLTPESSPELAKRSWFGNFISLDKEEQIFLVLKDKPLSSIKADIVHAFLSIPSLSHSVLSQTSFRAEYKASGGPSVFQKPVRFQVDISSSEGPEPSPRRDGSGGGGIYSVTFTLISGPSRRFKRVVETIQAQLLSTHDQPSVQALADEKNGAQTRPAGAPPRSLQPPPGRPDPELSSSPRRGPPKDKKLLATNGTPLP

[9] = target: CK1d (Homo sapiens, UniProt P48730); conditions: 1 μM; Run 1, Run 2
Sequence of CK1d (P48730 whole entry): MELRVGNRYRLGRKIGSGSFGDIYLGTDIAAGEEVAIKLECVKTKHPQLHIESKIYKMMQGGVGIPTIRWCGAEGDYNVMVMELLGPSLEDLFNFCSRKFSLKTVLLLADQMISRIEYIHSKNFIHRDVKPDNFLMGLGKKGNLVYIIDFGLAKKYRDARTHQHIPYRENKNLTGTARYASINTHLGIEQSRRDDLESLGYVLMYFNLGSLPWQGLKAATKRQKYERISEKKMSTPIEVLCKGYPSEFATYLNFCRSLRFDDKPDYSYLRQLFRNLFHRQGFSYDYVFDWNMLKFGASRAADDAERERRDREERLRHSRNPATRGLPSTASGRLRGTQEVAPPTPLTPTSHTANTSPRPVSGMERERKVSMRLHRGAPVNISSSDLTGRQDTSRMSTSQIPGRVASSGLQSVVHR

[10] = target: T4, ALK3/BMPR1A (Homo sapiens, UniProt P36894); experiment: 375-member kinase panel; assay type: biochemical; conditions: Run 1, Run 2; for % enzyme activity: 1 μM; for remaining activity at 1 µM: read-out: % enzyme activity, 1 μM
T4 construct: purchased Reaction Biology Corporation
T4 sequence (P36894 24-532): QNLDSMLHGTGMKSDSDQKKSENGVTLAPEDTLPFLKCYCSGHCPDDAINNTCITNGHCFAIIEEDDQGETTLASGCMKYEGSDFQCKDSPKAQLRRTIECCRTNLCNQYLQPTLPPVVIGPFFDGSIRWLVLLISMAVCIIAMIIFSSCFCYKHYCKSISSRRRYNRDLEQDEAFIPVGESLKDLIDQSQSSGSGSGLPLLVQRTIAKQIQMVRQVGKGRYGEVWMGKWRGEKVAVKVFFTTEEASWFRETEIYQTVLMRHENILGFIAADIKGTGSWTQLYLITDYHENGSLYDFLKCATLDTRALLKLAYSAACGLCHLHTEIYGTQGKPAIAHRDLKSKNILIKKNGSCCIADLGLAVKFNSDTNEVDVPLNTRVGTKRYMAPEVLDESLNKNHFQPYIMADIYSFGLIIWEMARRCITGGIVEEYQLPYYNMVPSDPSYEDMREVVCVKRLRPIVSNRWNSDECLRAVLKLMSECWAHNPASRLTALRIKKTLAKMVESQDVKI

Sequence of AKT2 (P31751 whole entry): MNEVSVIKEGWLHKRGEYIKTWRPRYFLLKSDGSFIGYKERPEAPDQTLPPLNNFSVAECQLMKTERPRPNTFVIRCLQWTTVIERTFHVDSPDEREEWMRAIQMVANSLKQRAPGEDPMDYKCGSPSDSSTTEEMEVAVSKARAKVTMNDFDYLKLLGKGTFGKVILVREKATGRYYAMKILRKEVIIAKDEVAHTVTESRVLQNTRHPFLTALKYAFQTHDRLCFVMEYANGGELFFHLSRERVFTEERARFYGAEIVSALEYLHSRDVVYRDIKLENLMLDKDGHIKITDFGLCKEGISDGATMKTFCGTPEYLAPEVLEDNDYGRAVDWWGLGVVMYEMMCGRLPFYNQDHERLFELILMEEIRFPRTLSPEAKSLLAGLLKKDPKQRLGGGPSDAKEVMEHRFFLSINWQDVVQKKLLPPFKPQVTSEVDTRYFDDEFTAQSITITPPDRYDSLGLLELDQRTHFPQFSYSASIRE

Compound | remaining activity at 1 µM [1] [%] | % enzyme activity at 1 μM [2] | remaining activity at 1 µM [3] [%] | % enzyme activity [4] [%] | remaining activity at 1 µM [5] [%] | % enzyme activity [6] [%] | % enzyme activity [7] [%] | remaining activity at 1 µM [8] [%] | % enzyme activity [9] [%] | % enzyme activity [10] [%] | remaining activity at 1 µM [10] [%]
COc1cc(-c2cncc(-c3ccc(N4CCN(C)CC4)cc3)c2C)cc(F)c1C(N)=O [Compound 26a, 2-Fluoro-6-methoxy-4-(4-methyl-5-(4-(4-methylpiperazin-1-yl)phenyl)pyridin-3-yl)benzamide] | 91.9 | 105% and 99.5% | 101 | 94.26 | 89.1 | 92.53 | 94.70 | 84.7 | 94.27 | 40.21 | 38.4
COc1cc(-c2cncc(-c3ccc(N4C[C@@H](C)N(C)[C@@H](C)C4)cc3)c2C)cc(F)c1C(N)=O [Compound 26c, 2-Fluoro-6-methoxy-4-(4-methyl-5-(4-((3R,5S)-3,4,5-trimethylpiperazin-1-yl)phenyl)pyridin-3-yl)benzamide] | 93 | 98.6% and 98.2% | 103 | 100.95 | 95.7 | 98.93 | 98.11 | 84 | 108.05 | 50.46 | 50
